Results taken from ChEMBL document CHEMBL3046159, “Synthesis of some 3,4-disubstituted-6,7-dihydro-imidazo[2,1-b][1,3]thiazole and 3,4-disubstituted-7,8-dihydro-6H-imidazo[2,1-b][1,3]thiazine derivatives and evaluation of their cytotoxicities against F2408 and 5RP7 cells” (Med Chem Res, 2008).
Converted amounts (≈) assume the structure as drawn. The source made the active and inactive calls. No cut-off for these calls is given here.

Assays:
[1] = Cytotoxicity against Rattus norvegicus (rat) F2408 cells at low concentration after 24 hr by MTT assay; type: cell-based; conditions: f2408, 24 h
[2] = Cytotoxicity against Rattus norvegicus (rat) F2408 cells after 24 hr by MTT assay; type: cell-based; conditions: F2408, 24 h
5RP7 [3] = test: Cytotoxicity against Rattus norvegicus (rat) 5RP7 cells at low concentration after 24 by MTT assay; type: functional, cell-based
[4] = Cytotoxicity against Rattus norvegicus (rat) 5RP7 cells after 24 hr by MTT assay; type: functional, cell-based; conditions: 5RP7, 24 h
[5] = Cytotoxicity against Rattus norvegicus (rat) 5RP7 cells at 0.0256 ug/ml by MTT assay; type: functional
[6] = Cytotoxicity against Rattus norvegicus (rat) F2408 cells at 0.064 ug/ml by MTT assay; type: cell-based
[7] = Cytotoxicity against Rattus norvegicus (rat) 5RP7 cells at 0.064 ug/ml by MTT assay; type: functional
[8] = Cytotoxicity against Rattus norvegicus (rat) F2408 cells at 0.0128 ug/ml by MTT assay; type: cell-based
[9] = Cytotoxicity against Rattus norvegicus (rat) 5RP7 cells at 0.0128 ug/ml by MTT assay; type: functional
[10] = Cytotoxicity against Rattus norvegicus (rat) F2408 cells at 0.0256 ug/ml by MTT assay; type: cell-based
[11] = Cytotoxicity against Rattus norvegicus (rat) F2408 cells assessed as cell viability at 0.0128 ug/ml after 24 hr by MTT assay; type: cell-based; conditions: read-out: Activity
[12] = Cytotoxicity against Rattus norvegicus (rat) 5RP7 cells assessed as cell viability at 0.0128 ug/ml after 24 hr by MTT assay; type: functional; conditions: 5RP7, 24 h, read-out: Activity
[13] = Cytotoxicity against Rattus norvegicus (rat) F2408 cells assessed as cell viability at 0.0256 to 0.064 ug/ml after 24 hr by MTT assay; type: cell-based; conditions: read-out: Activity
5RP7 [14] = test: Cytotoxicity against Rattus norvegicus (rat) 5RP7 cells at high concentration after 48 hr by MTT assay; type: functional, cell-based
[15] = Cytotoxicity against Rattus norvegicus (rat) F2408 cells after 48 hr by MTT assay; type: cell-based; conditions: f2408, 48 h

Question: With `Cc1ccc(-c2nc3n(c2-c2ccc(C)cc2)CCS3)cc1` as the compound, how does the Activity [1] read?
Answer: Its Activity is “Non-toxic”.

Question: What about the IC50 [2] of the same compound?
Answer: Its IC50 is 15 µg/mL (≈ 49 µM).

Question: What about the Activity (5RP7 [3]) of the same compound?
Answer: The Activity was “Active”.

Question: What about the IC50 [4] of the same compound?
Answer: Its IC50 is 18 µg/mL (≈ 58.7 µM).

Question: For `c1ccc(-c2nc3n(c2-c2ccccc2)CCCS3)cc1`, which Activity [5] is on record?
Answer: Its Activity is 28%.

Question: And the Activity [6]?
Answer: Its Activity is 18%.

Question: And the IC50 [2]?
Answer: The IC50 was 10 µg/mL (≈ 34.2 µM).

Question: And the Activity [7]?
Answer: Its Activity is 21%.

Question: What about the Activity [8] of the same compound?
Answer: Its Activity is 20%.

Question: What about the IC50 [4] of the same compound?
Answer: The IC50 was 2.9 µg/mL (≈ 9.92 µM).

Question: What about the Activity [9] of the same compound?
Answer: Its Activity is 30%.

Question: What about the Activity [10] of the same compound?
Answer: The Activity was 21%.

Question: Which Activity [1] does the source give for `COc1ccc(-c2nc3n(c2-c2ccc(OC)cc2)CCS3)cc1` here?
Answer: Its Activity is “Non-toxic”.

Question: And the IC50 [2]?
Answer: Its IC50 is 29 µg/mL (≈ 85.7 µM).

Question: What about the Activity (5RP7 [3]) of the same compound?
Answer: The Activity was “Active”.

Question: What about the IC50 [4] of the same compound?
Answer: The IC50 was 22 µg/mL (≈ 65 µM).

Question: Which results are given for `Cc1ccc(-c2nc3n(c2-c2ccc(C)cc2)CCCS3)cc1`?
Answer: viability at 24 h, 0.0128 ug/ml [11]: 100%; viability at 0.0128 µg/mL [12]: 87%; IC50 [2]: 12 µg/mL (≈ 37.4 µM); viability at 24 h [13]: 100%; IC50 [4]: 4.6 µg/mL (≈ 14.4 µM)

Question: Which results are given for `c1ccc(-c2nc3n(c2-c2ccccc2)CCS3)cc1`?
Answer: IC50 [2]: 9.5 µg/mL (≈ 34.1 µM); Activity (5RP7 [14]): Active; IC50 [4]: 15 µg/mL (≈ 53.9 µM); Activity [15]: Toxic
